Results published in patent US10035771B2 (priority 2013, dated 2018).

Experiments:
BoNT/F-LC = BoNT/F-LC (Clostridium botulinum, UniProt A7GBG3); assay: biochemical; details: for inhibition at 100 µg/mL: read-out: Inhibition rate %
[1] = target: tetanus toxin light chain (TeNt-LC) (Clostridium tetani, UniProt P04958); assay: biochemical; details: for inhibition at 200 µg/mL: read-out: Inhibition rate %
[2] = target: type E botulinum toxin light chain (BoNT/E-LC) (Clostridium botulinum, UniProt Q00496); assay: biochemical; details: for inhibition at 100 µg/mL: read-out: Inhibition rate %
type E botulinum toxin light chain (BoNT/E-LC), sequence (Q00496 2-422 limits assumed): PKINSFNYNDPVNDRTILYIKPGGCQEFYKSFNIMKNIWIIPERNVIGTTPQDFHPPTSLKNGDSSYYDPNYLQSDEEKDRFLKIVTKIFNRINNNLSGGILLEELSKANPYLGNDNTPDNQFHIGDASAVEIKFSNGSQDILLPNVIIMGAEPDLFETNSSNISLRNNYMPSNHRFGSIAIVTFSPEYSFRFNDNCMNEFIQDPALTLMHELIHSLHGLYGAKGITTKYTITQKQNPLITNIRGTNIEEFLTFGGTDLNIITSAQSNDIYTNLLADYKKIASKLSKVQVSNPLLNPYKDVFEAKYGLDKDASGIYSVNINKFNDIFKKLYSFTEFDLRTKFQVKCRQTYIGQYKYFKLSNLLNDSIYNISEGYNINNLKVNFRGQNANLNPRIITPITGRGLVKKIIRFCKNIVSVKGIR

[3] = target: type B botulinum toxin light chain (BoNT/B-LC) (Clostridium botulinum, UniProt P10844); assay: biochemical; details: for inhibition at 100 µg/mL: read-out: Inhibition rate %
type B botulinum toxin light chain (BoNT/B-LC), sequence (P10844 2-441 limits assumed): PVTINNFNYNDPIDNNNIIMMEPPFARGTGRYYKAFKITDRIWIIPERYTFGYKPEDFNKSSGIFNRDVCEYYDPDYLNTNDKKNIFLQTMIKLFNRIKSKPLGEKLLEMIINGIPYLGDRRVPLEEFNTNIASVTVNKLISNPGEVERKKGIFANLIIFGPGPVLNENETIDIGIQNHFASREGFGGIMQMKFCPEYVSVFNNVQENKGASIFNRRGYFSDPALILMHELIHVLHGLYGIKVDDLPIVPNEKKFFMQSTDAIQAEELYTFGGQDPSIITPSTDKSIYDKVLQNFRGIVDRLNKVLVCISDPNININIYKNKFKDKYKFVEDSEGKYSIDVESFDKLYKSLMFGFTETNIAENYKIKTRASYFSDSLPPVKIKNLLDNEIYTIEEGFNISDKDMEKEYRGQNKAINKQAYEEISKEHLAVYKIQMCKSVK

[4] = target: type A botulinum toxin light chain (BoNT/A-LC) (Clostridium botulinum, UniProt P0DPI1); assay: biochemical; details: for inhibition at 100 µg/mL: read-out: Inhibition rate %
type A botulinum toxin light chain (BoNT/A-LC), sequence (P0DPI1 2-448 limits assumed): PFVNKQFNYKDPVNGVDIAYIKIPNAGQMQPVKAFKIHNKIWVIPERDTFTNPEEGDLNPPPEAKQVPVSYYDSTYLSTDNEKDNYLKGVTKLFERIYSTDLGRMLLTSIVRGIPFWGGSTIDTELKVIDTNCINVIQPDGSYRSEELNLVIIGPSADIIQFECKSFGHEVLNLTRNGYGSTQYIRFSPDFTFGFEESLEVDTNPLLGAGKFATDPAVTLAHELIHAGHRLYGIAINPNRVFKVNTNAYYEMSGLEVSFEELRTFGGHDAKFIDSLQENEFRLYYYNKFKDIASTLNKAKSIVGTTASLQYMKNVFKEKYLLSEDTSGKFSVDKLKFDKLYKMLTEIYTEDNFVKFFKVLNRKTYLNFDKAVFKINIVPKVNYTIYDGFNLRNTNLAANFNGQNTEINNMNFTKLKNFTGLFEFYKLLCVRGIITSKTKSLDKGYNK

[5] = target: type B botulinum toxin (BoNT/B) (Clostridium botulinum, UniProt P10844); design: species or system Balb/c mice; details: mouse, in vivo, ip
type B botulinum toxin (BoNT/B), sequence (P10844 2-441 limits assumed): as the sequence (P10844 2-441 limits assumed) above
type B botulinum toxin (BoNT/B), sequence (P10844 442-1291 limits assumed): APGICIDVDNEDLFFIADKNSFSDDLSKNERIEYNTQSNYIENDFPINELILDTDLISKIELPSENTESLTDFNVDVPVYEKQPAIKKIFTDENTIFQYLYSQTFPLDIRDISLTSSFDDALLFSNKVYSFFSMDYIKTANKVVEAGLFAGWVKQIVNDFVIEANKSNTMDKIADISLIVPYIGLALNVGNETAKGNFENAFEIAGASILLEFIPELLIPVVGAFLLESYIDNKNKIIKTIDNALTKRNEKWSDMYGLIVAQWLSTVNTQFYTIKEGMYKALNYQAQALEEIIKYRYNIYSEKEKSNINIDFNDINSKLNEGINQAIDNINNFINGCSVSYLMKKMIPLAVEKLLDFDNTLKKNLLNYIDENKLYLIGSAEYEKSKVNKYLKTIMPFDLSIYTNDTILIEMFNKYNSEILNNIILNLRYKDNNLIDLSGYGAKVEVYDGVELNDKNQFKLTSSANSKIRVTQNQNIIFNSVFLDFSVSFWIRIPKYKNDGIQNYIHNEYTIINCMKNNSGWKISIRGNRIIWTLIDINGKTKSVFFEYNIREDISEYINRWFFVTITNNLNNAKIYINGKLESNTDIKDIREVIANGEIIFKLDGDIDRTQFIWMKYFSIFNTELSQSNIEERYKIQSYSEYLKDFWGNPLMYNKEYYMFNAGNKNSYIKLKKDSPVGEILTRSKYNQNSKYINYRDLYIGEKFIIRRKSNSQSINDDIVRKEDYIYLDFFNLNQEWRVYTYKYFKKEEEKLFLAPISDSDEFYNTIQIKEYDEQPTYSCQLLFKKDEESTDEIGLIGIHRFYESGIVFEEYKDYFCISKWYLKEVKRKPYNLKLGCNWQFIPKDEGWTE

[6] = target: type A botulinum toxin (BoNT/A) (Clostridium botulinum, UniProt P0DPI1); design: species or system Balb/c mice; details: mouse, in vivo, ip
type A botulinum toxin (BoNT/A), sequence (P0DPI1 2-448 limits assumed): as the sequence (P0DPI1 2-448 limits assumed) above
type A botulinum toxin (BoNT/A), sequence (P0DPI1 449-1296 limits assumed): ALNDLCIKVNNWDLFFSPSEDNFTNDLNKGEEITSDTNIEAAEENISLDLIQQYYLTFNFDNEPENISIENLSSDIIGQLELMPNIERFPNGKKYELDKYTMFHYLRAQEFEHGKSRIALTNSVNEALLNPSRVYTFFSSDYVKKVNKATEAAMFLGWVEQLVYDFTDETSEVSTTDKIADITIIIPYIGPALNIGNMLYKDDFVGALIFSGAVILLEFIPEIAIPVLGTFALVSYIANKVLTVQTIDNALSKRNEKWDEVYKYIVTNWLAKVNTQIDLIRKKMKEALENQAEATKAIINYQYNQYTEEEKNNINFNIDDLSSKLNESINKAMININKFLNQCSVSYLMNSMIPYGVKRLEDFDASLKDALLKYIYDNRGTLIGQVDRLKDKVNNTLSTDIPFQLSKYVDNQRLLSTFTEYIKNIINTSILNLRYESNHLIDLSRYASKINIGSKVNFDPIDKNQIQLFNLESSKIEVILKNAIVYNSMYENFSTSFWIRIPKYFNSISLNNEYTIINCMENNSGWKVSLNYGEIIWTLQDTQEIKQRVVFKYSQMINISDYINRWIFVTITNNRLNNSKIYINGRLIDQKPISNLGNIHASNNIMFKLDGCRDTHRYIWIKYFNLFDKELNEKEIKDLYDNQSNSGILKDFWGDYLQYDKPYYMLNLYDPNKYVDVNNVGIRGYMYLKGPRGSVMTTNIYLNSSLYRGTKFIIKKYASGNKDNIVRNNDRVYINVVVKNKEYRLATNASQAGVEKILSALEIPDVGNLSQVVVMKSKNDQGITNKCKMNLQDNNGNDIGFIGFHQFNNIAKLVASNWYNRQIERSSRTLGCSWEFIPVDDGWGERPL

[7] = target: light chain of type A botulinum toxin (Clostridium botulinum, UniProt P0DPI1); details: read-out: Ki value; cited from earlier work

BoNT/F-LC, sequence (A7GBG3 1-436 limits assumed): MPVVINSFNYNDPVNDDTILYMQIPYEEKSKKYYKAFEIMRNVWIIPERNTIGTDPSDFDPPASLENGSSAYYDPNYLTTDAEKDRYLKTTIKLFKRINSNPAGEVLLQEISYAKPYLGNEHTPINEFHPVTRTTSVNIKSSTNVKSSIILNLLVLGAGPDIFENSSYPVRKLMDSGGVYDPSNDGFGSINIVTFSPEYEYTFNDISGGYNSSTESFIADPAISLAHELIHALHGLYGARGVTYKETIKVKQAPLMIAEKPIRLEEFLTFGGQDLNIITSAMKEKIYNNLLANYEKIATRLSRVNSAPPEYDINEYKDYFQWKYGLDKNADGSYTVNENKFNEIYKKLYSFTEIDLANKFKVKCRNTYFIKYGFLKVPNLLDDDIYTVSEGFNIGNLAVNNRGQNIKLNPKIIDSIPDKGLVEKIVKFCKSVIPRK
tetanus toxin light chain (TeNt-LC), sequence (P04958 2-457 limits assumed): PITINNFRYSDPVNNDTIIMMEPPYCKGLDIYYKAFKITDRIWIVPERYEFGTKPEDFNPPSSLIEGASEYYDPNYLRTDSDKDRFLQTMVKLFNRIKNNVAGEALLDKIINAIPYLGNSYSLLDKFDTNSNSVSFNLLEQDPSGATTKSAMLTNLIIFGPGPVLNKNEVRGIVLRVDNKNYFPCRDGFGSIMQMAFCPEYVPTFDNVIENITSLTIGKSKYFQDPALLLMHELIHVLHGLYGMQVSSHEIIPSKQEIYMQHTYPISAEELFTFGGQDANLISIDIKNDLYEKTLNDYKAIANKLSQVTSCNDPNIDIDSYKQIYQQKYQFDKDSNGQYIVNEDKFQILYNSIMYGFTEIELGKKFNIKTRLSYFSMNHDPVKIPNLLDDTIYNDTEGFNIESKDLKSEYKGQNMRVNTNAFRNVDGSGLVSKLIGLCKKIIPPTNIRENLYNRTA

SMILES | inhibition at 100 µg/mL (BoNT/F-LC) [%] | inhibition at 200 µg/mL [1] [%] | inhibition at 100 µg/mL [2] [%] | inhibition at 100 µg/mL [3] [%] | inhibition at 100 µg/mL [4] [%] | % survival [5] [%] | also measured
CCCOc1ccc(Cl)cc1NC(=O)CSc1ncccc1C(=O)O [Example 7] | 11.3 | 20 | 14 | 24.2 | 18.1 | – | –
O=C(CSc1ncccc1C(=O)O)Nc1ccccc1 [Example 17, 2-(anilino-2-acetylthio)nicotinic Acid] | 8.3 | 6.4 | 18 | 3.7 | 15.4 | – | –
CCOc1ccc(Cl)cc1NC(=O)CSc1ncccc1C(=O)O [Example 6] | 6.7 | 4.7 | 16.8 | 8.6 | 14.7 | – | –
O=C(CSc1ncccc1C(=O)[O-])Nc1cc(OC(F)(F)F)ccc1Br.[K+] [Example 26] | – | – | – | – | – | 20 | –
O=C(CSc1ncccc1C(=O)[O-])Nc1ccc(OC(F)(F)F)cc1.[K+] [Example 21, potassium] | 16.5 | 17.4 | 20.3 | 28 | 14.3 | – | –
COc1ccc(Cl)cc1NC(=O)CSc1cc(C(=O)[O-])ccn1.[K+] [Example 15] | – | – | – | – | – | – | % survival [6]: 80%
O=C(CSc1ncccc1C(=O)[O-])Nc1cc(Br)ccc1Br.[K+] [Example 9] | – | – | – | – | – | 20 | –
O=C(CSc1ncccc1C(=O)[O-])Nc1ccccc1OC(F)(F)F.[K+] [Example 24] | – | – | – | – | – | 80 | –
COC(=O)c1ccc(O)c2nc3c(C=O)c(O)cc(O)c3nc12 [lomofungin] | – | – | – | – | – | – | Ki [7]: 6.7 ± 0.7 µM
O=C(CSc1ncccc1C(=O)[O-])Nc1cccc(Cl)c1.[K+] [Example 20, potassium] | 17.8 | 22.2 | 4.2 | 41 | 6.8 | – | –
COc1ccc(Cl)cc1NC(=O)CSc1ncccc1C(=O)[O-].[K+] [Example 3] | – | – | – | – | – | 60 | Inhibition rate % (BoNT/F-LC): 19.2%; Inhibition rate % [1]: 20.2%; Inhibition rate % [2]: 16.5%; Inhibition rate % [3]: 30.2%; % survival [6]: 40%; Inhibition rate % [4]: 11.3%
CCOc1ccccc1NC(=O)CSc1ncccc1C(=O)O [Example 5] | 5 | 8 | 6.8 | 4.3 | 2.7 | – | –
O=C(CSc1ncccc1C(=O)[O-])Nc1ccc(Br)cc1.[K+] [Example 12, potassium] | 13.2 | 16.4 | 12.3 | 29.1 | 9.4 | – | –
O=C(CSc1ncccc1C(=O)[O-])Nc1cc(OC(F)(F)F)ccc1Br.[K+] [Example 26, potassium] | 13.1 | 17.1 | 12.1 | 30 | 27.4 | – | –
COc1ccc(Cl)c(NC(=O)CSc2ncccc2C(=O)[O-])c1.[K+] [Example 14] | – | – | – | – | – | – | % survival [6]: 20%
O=C(CSc1ncccc1C(=O)[O-])Nc1ccccc1Cl.[K+] [Example 8] | – | – | – | – | – | 0 | % survival [6]: 80%
COc1ccc(F)cc1NC(=O)CSc1ncccc1C(=O)O [Example 13, potassium] | 16.4 | 14.6 | 18.3 | 22 | 20.3 | – | –
O=C(CSc1ncccc1C(=O)[O-])Nc1cc(Cl)ccc1OCc1ccccc1.[K+] [Example 23, sodium] | 35.8 | 30.3 | 50.7 | 55.7 | 78 | – | –

SMILES | inhibition at 100 µg/mL (BoNT/F-LC) [%] | inhibition at 200 µg/mL [1] [%] | inhibition at 100 µg/mL [2] [%] | inhibition at 100 µg/mL [3] [%] | inhibition at 100 µg/mL [4] [%] | % survival [5] [%] | also measured
O=C(CSc1ncccc1C(=O)[O-])Nc1ccc(OC(F)(F)F)cc1.[K+] [Example 21] | – | – | – | – | – | 40 | % survival [6]: 40%
O=C(CSc1ncccc1C(=O)O)Nc1ccc(F)cc1 [Example 19, potassium] | 4 | 2.7 | 6.8 | 3 | 3 | – | –
COc1ccc(Cl)c(NC(=O)CSc2ncccc2C(=O)[O-])c1.[K+] [Example 14, potassium] | 9.8 | 12.3 | 13.5 | 24.2 | 19.8 | – | –
COc1ccc(Cl)cc1NCC(=O)Sc1ncccc1C(=O)[O-].[Na+] [Example 1, 2-(2-(5-chloro-2-methoxyanilino)acetylthio)nicotinate sodium] | 12.2 | 12.8 | 7.32 | 27.8 | 8.4 | 40 | –
COc1cc(Cl)cc(NCC(=O)Sc2ncccc2C(=O)[O-])c1.[Na+] [Example 4, 2-(2-(3-chloro-5-methoxyanilino)acetylthio)nicotinate sodium] | 48.6 | 34.5 | 43.2 | 95.5 | 45.4 | 100 | % survival [6]: 100%
COc1ccc(Cl)cc1NC(=O)CSc1cc(C(=O)[O-])ccn1.[K+] [Example 15, potassium] | 7.2 | 23.5 | 16.3 | 19.4 | 3 | – | –
O=C(CSc1ncccc1C(=O)[O-])Nc1cc(Br)ccc1Br.[K+] [Example 9, potassium] | 12.1 | 15.2 | 8.2 | 29.2 | 9.3 | – | –
O=C(CSc1ncccc1C(=O)[O-])Nc1cccc(Cl)c1.[K+] [Example 20] | – | – | – | – | – | 0 | –
O=C(CSc1ncccc1C(=O)[O-])Nc1ccccc1OC(F)(F)F.[K+] [Example 24, potassium] | 11.2 | 13.2 | 5.6 | 29.3 | 8.9 | – | –
O=C(CSc1ncccc1C(=O)[O-])Nc1cc(Cl)ccc1OCc1ccccc1.[K+] [Example 23] | – | – | – | – | – | 80 | % survival [6]: 100%
O=C(CSc1ncccc1C(=O)[O-])Nc1ccccc1Cl.[K+] [Example 8, potassium] | 15.3 | 21.1 | 27.6 | 35 | 25.1 | – | –
O=C(CSc1ncccc1C(=O)[O-])Nc1ccc(Br)cc1.[K+] [Example 12] | – | – | – | – | – | 80 | –
O=C(CSc1ncccc1C(=O)O)Nc1cccc(OC(F)(F)F)c1 [Example 25, potassium] | 3 | 5.7 | 4.3 | 15.2 | 2.9 | – | –
O=C(CSc1ncccc1C(=O)O)Nc1cc(F)ccc1F [Example 22, potassium] | 3.4 | 4.4 | 2.1 | 2.7 | 3.2 | – | –
O=C(CSc1ncccc1C(=O)[O-])Nc1cc(F)ccc1Cl.[K+] [Example 18, 2-(2-(5-fluoro-2-chlorophenyl)-2-acetylthio)nicotinate potassium] | 16.2 | 19.3 | 17.2 | 30.2 | 11.4 | 40 | % survival [6]: 0%
COc1ccc(OC)c(NC(=O)CSc2ncccc2C(=O)O)c1 [Example 16, potassium] | 9.8 | 16.2 | 5.2 | 20.1 | 17.9 | – | –
COc1ccc(Cl)cc1NC(=O)CSc1ncccc1C(=O)O [Example 2] | 13.2 | 12.3 | 11.6 | 20.5 | 12.1 | – | –
